In patent US11020405B2, “Method for prevention or treatment of diabetic complications” (KANGWON NATIONAL UNIVERSITY UNIVERSITY-INDUSTRY COOPERATION …, priority 2017, dated 2021):

Columns and labels:
[1] = test system: β-catenin; test: Analysis of adherens junction (β-catenin staining); type: cell-based, human; details: HRECs, 10 ng/mL VEGF 90 min with 20 μM midazolam, 5 μM BAPTA-AM, 1 mM NAC, 0.5 μM Trolox, 50 μM cystamine or 20 μM MDC (FIGS. 8, 9)
Method: (§1) Purchased from Applied Cell Biology Research Institute (Cell Systems, Kirkland, Wash.), human retinal endothelial cells (HRECs) were cultured in an M19 medium, containing 20% FBS, 3 ng/mL bFGF, 5 U/mL heparin, 100 U/mL penicillin and […], in a 2% gelatin-coated plate.
(§2) Before the following Test Examples 2 to 7, the HRECs were cultured for 6 hr in a medium containing 1% FBS and an antibiotic agent, thus preparing HRECs of Test Example 1.
The HRECs of Test Example 1 were subjected to the respective treatments below and cultured for 30 min. Here, treatment with 10 ng/mL VEGF was performed for 90 min. Thereafter, the HRECs were treated with 1 mM 5-(biotinamido)pentylamine, incubated for 1 hr, fixed with 3.7% formaldehyde, treated with 0.2% triton X-100, treated with a blocking solution containing 138 mM NaCl, 0.1% Tween 20 and 2% BSA dissolved in a 20 mM Tris (pH 7.6) buffer, incubated for 30 min, incubated with a monoclonal β-catenin antibody (1:200; Santa Cruz Biotechnology) for 12 hr or more, incubated with a FITC-conjugated goat anti-mouse antibody, and measured using confocal microscopy. Some (the following i), ii), iii), iv)) of the results are shown in FIG. 8, and the β-catenin concentrations in the portions represented by the dotted lines in FIG. 8 are shown in FIG. 9. With reference to FIG. 9, 10 randomly selected cells were measured to determine the fluorescence intensity of single cells and thus quantify β-catenin.
β-catenin, which is a protein that mediates adherens junction like VE-cadherin, was analyzed to evaluate adherens junction.

[2] = test system: human retinal endothelial cells (HRECs); test: Analysis of intracellular Ca^2+ (Fluo4-AM, confocal microscopy); type: cell-based; details: 10 ng/mL VEGF with 5 μM BAPTA-AM, 1 mM NAC, 0.5 μM Trolox, 50 μM cystamine or 20 μM MDC, 30 min (FIG. 2B)
Method: as §1, §2
With reference to FIG. 2A, the HRECs of Test Example 1 were subjected to the respective treatments below, stained with 2 μM Fluo4-AM at 37° C. for 30 min and then measured at time intervals of 10 sec using confocal microscopy (FV-300, Olympus, Tokyo, Japan).
With reference to FIG. 2B, the HRECs of Test Example 1 were subjected to the respective treatments below, cultured for 30 min, stained with 2 μM Fluo4-AM at 37° C. for 30 min and then measured at time intervals of 10 sec using confocal microscopy.

[3] = test system: human retinal endothelial cells (HRECs); test: Analysis of ROS of cells (H2DCFDA fluorescence); type: cell-based; details: 10 ng/mL VEGF with 20 μM midazolam, 5 μM BAPTA-AM, 1 mM NAC, 0.5 μM Trolox, 50 μM cystamine or 20 μM MDC (FIG. 3B)
Method: as §1, §2
With reference to FIG. 3A, the HRECs of Test Example 1 were treated with 0 to 20 μM midazolam, cultured for 30 min, treated with 10 ng/mL VEGF and 10 μM H2DCFDA (Molecular Probes, Eugene, Oreg.), stained for 10 min in a phenol-red-free low-serum medium, and then measured using confocal microscopy to thus determine the fluorescence intensity of single cells.
With reference to FIG. 3B, the HRECs of Test Example 1 were subjected to the respective treatments below and cultured for 30 min. Upon treatment with 10 ng/mL VEGF, treatment with 10 μM H2DCFDA was performed therewith, or alternatively, treatment with 10 μM H2DCFDA was performed alone, followed by staining for 10 min in a phenol-red-free low-serum medium and then measurement via confocal microscopy to thus determine the fluorescence intensity of single cells.

[4] = test system: VE-cadherin; test: Analysis of adherens junction (VE-cadherin staining); type: cell-based, human; details: HRECs, 10 ng/mL VEGF 90 min with 20 μM midazolam, 5 μM BAPTA-AM, 1 mM NAC, 0.5 μM Trolox, 50 μM cystamine or 20 μM MDC (FIGS. 5, 6)
Method: as §1, §2
The HRECs of Test Example 1 were subjected to the respective treatments below and cultured for 30 min. Here, treatment with 10 ng/mL VEGF was performed for 90 min. Thereafter, the HRECs were treated with 1 mM 5-(biotinamido)pentylamine, incubated for 1 hr, fixed with 3.7% formaldehyde, treated with 0.2% triton X-100, treated with a blocking solution containing 138 mM NaCl, 0.1% Tween 20 and 2% BSA dissolved in a 20 mM Tris (pH 7.6) buffer, incubated for 30 min, incubated with a monoclonal VE-cadherin antibody (1:200; Santa Cruz Biotechnology) for 12 hr or more (overnight), incubated with a FITC-conjugated goat anti-mouse antibody (1:200; Sigma-Aldrich), and then measured using confocal microscopy. Some (the following i), iii), iv), vi), ix)) of the results are shown in FIG. 5 and the VE-cadherin concentrations in the portions represented by the dotted lines in FIG. 5 are shown in FIG. 6. With reference to FIG. 6, 10 randomly selected cells were measured to determine the fluorescence intensity of single cells and thus quantify VE-cadherin.
VE-cadherin, which is a protein that mediates adherens junction, was analyzed to evaluate adherens junction.

[5] = test system: endothelial monolayer of HRECs; test: Analysis of cell permeability (FITC-dextran, Transwell); type: cell-based, human; details: HREC monolayer, 10 ng/mL VEGF 90 min with 20 μM midazolam, 5 μM BAPTA-AM, 1 mM NAC, 0.5 μM Trolox, 50 μM cystamine or 20 μM MDC; 40 kDa FITC-dextran 60 min (FIG. 7)
Method: The HRECs were cultured (e.g. about 5 days) until the cell confluence thereof reached an appropriate level on gelatin-coated 0.4 μm polycarbonate membranes of Transwell Permeable Supports (Costar, Corning, N.Y.), followed by the respective treatments below and culture for 30 min. Here, treatment with 10 ng/mL VEGF was performed for 90 min. Thereafter, the HRECs were treated with 1 mg/mL 40 kDa FITC-dextran (Sigma-Aldrich), incubated for 60 min, after which the amount of FITC-dextran that was diffused into the lower chamber through the endothelial monolayer of HERCs was measured using a microplate spectrofluorometer (Molecular Devices, Sunnyvale, Calif.).

[6] = test system: TGase; test: Identification of receptor of midazolam through TGase activity analysis; type: cell-based, human; details: HRECs, 0-50 μM flumazenil or 0-30 μM PK11195 1 hr, then 20 μM midazolam 30 min, then 10 ng/ml VEGF (FIG. 11B)
Method: With reference to FIG. 11A, the HRECs of Test Example 1 were subjected to the respective treatments below, cultured for 2 hr, treated with 1 mM 5-(biotinamido)pentylamine, incubated for 1 hr, fixed with 3.7% formaldehyde, treated with 0.2% triton X-100, treated with a blocking solution containing 138 mM NaCl, 0.1% Tween 20 and 2% BSA dissolved in a 20 mM Tris (pH 7.6) buffer, incubated for 30 min, incubated with FITC-conjugated streptavidin (1:200, v/v) for 1 hr, and then measured using confocal microscopy to thus determine the fluorescence intensity of single cells.
(§3) As will be described below, flumazenil was used as a GABAA receptor antagonist and PK11195 was used as a TSOP receptor antagonist.
With reference to FIG. 11B, the HRECs of Test Example 1 were treated with 0 μM, 0.01 μM, 0.1 μM, 1 μM, 10 μM, 20 μM, and 50 μM flumazenil and 0 μM, 0.01 μM, 0.1 μM, 1 μM, 3 μM, 10 μM, and 30 μM PK11195, cultured for 1 hr, treated with 20 μM midazolam, cultured for 30 min, treated with 10 ng/ml VEGF, incubated for 10 min, treated with 1 mM 5-(biotinamido)pentylamine, incubated for 1 hr, fixed with 3.7% formaldehyde, treated with 0.2% triton X-100, treated with a blocking solution containing 138 mM NaCl, 0.1% Tween 20 and 2% BSA dissolved in a 20 mM Tris (pH 7.6) buffer, incubated for 30 min, incubated with FITC-conjugated streptavidin (1:200, v/v) for 1 hr, and then measured using confocal microscopy to thus determine the fluorescence intensity of single cells.

[7] = test system: human retinal endothelial cells (HRECs); test: Identification of receptor of midazolam through ROS concentration analysis; type: cell-based; details: 0-50 μM flumazenil or 0-30 μM PK11195 1 hr, then 20 μM midazolam 30 min, then 10 ng/ml VEGF (FIG. 10B)
Method: With reference to FIG. 10A, the HRECs of Test Example 1 were subjected to the respective treatments below, cultured for 10 min, treated with 10 μM H2DCFDA, stained for 10 min in a phenol-red-free low-serum medium, and measured using confocal microscopy to thus determine the fluorescence intensity of single cells.
as §3
With reference to FIG. 10B, the HRECs of Test Example 1 were treated with 0 μM, 0.01 μM, 0.1 μM, 1 μM, 10 μM, 20 μM, and 50 μM flumazenil and 0 μM, 0.01 μM, 0.1 μM, 1 μM, 3 μM, 10 μM, and 30 μM PK11195, cultured for 1 hr, treated with 20 μM midazolam, cultured for 30 min, treated with 10 ng/ml VEGF, incubated for 10 min, treated with 10 μM H2DCFDA, stained for 10 min in a phenol-red-free low-serum medium, and then measured using confocal microscopy to thus determine the fluorescence intensity of single cells.

SMILES | β-catenin concentration / adherens junction disruption due to VEGF [1] | changes in intracellular Ca^2+ (VEGF-induced) compared to control [2] | ROS concentration (VEGF-induced) compared to control [3] | VE-cadherin concentration / adherens junction disruption due to VEGF [4] | FITC-dextran diffused into lower chamber (cell permeability) / adherens junction disruption due to VEGF [5] | TGase activity in midazolam- and VEGF-treated cells after receptor antagonist [6] | ROS concentration in midazolam- and VEGF-treated cells after receptor antagonist [7]
Cc1c(C)c2c(c(C)c1O)CCC(C)(C(=O)O)O2 (stereo not drawn) [Trolox] | the effect of preventing the adherens junction disruption was also observed | intracellular Ca^2+ elevation was caused | no significant ROS concentration increase was observed | the effect of preventing the adherens junction disruption was also observed | the effect of preventing the adherens junction disruption was also observed |  | 
CC(=O)OCOC(=O)CN(CC(=O)OCOC(C)=O)c1ccccc1OCCOc1ccccc1N(CC(=O)OCOC(C)=O)CC(=O)OCOC(C)=O [BAPTA-AM] | the effect of preventing the adherens junction disruption was also observed | no significant changes in intracellular Ca^2+ | no significant ROS concentration increase was observed | the effect of preventing the adherens junction disruption was also observed | the effect of preventing the adherens junction disruption was also observed |  | 
NCCSSCCN [cystamine] | the effect of preventing the adherens junction disruption was also observed | intracellular Ca^2+ elevation was caused | ROS concentration was increased | the effect of preventing the adherens junction disruption was also observed | the effect of preventing the adherens junction disruption was also observed |  | 
CCC(C)N(C)C(=O)c1cc2ccccc2c(-c2ccccc2Cl)n1 (stereo not drawn) [PK11195] |  |  |  |  |  | no increase in TGase activity, regardless of the PK11195 concentration | no increase in ROS concentration, regardless of the PK11195 concentration
CC(=O)N[C@@H](CS)C(=O)O [NAC] | the effect of preventing the adherens junction disruption was also observed | intracellular Ca^2+ elevation was caused | no significant ROS concentration increase was observed | the effect of preventing the adherens junction disruption was also observed | the effect of preventing the adherens junction disruption was also observed |  | 
CN(C)c1cccc2c(S(=O)(=O)NCCCCCN)cccc12 [MDC] | the effect of preventing the adherens junction disruption was also observed | intracellular Ca^2+ elevation was caused | ROS concentration was increased | the effect of preventing the adherens junction disruption was also observed | the effect of preventing the adherens junction disruption was also observed |  | 
